From ChEMBL document CHEMBL5154716, “Neuropeptide B/W receptor 1 peptidomimetic agonists: Structure-activity relationships and plasma stability” (Eur J Med Chem, 2022)
Non-standard residues stand in square brackets, D forms with d. Residues, ends and D or L forms follow the SMILES beside them. *: point of attachment. Propanoyl(3-indol-3-yl) = O=C(CCc1c[nH]c2ccccc12)*; Trp(1-Me) = Cn1cc(C[C@H](N)C(=O)O)c2ccccc21; Tle = CC(C)(C)[C@H](N)C(=O)O; Ava = NCCCCC(=O)O

What was measured:
[1] = target: T1, Neuropeptides B/W receptor type 1 (Homo sapiens, UniProt P48145); assay: (§1) Agonist activity at human NPBWR1 expressed in CHO-RD-HGA16 cells measured by calcium mobilization assay; format: functional, cell-based
T1 sequence (P48145 whole entry): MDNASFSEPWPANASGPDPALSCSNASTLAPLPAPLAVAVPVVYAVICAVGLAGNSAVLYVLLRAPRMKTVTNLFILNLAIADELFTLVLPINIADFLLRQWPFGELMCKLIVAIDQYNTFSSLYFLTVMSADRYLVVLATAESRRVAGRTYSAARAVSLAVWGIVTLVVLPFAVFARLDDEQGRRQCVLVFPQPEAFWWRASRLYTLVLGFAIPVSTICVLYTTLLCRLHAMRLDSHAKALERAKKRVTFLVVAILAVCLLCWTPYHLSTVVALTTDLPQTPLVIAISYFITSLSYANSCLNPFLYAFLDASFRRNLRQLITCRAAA

[2] = target: T1, Neuropeptides B/W receptor type 1; assay: Antagonist activity at human NPBWR1 expressed in CHO-RD-HGA16 cells measured by calcium mobilization assay; format: functional, cell-based
[3] = target: T2, Neuropeptides B/W receptor type 1 (Homo sapiens) (UniProt P48145); assay: Antagonist activity at human NPBWR1 expressed in CHO-RD-HGA16 cells at 10 uM measured by calcium mobilization assay relative to control; format: functional, cell-based; design: scale not given: the % may be the effect or the level left; conditions: filed as antagonist
T2 sequence (whole entry): T1 sequence (P48145 whole entry)

[4] = target: T2, Neuropeptides B/W receptor type 1 (Homo sapiens); assay: Agonist activity at human NPBWR1 expressed in CHO-RD-HGA16 cells measured by calcium mobilization assay relative to control; format: functional, cell-based
[5] = Metabolic stability in male Sprague-Dawley rat plasma assessed as compound remaining at 1 uM measured after […] by LC-MS/MS analysis; format: ADME, cell-free; conditions: read-out: Stability
[6] = Metabolic stability in male Sprague-Dawley rat plasma assessed as half-life at 1 uM measured after 240 mins by LC-MS/MS analysis; format: ADME, cell-free
[7] = target: T1, Neuropeptides B/W receptor type 1; assay: Agonist activity at human NPBWR1 expressed in CHO cells measured by LANCE Ultra cAMP kit-based TR-FRET assay; format: functional, cell-based
[8] = target: T2, Neuropeptides B/W receptor type 1 (Homo sapiens); assay: as §1; format: functional, cell-based; conditions: filed as agonist

For `CCCCCCCCCCCCCCCC(=O)NCCCC[C@H](NC(=O)[C@H](CCCCN)NC(=O)[C@H](CCCCN)NC(=O)[C@H](CCCCN)NC(=O)[C@H](Cc1ccc(O)cc1)NC(=O)[C@@H](N)Cc1c[nH]c2ccccc12)C(=O)N[C@@H](CCCCN)C(=O)NCCCCC(=O)NCC(=O)N[C@@H](CCCNC(=N)N)C(=O)N[C@@H](C)C(=O)N[C@@H](C)C(=O)NCC(=O)N[C@@H](CC(C)C)C(=O)N[C@@H](CC(C)C)C(N)=O`, the EC50 ([1]; cho-rd-hga16) was > 10000 nM and the IC50 ([2]; cho-rd-hga16) was 406 nM.
In the case of `CC(C)C[C@H](NC(=O)[C@H](CC(C)C)NC(=O)CNC(=O)[C@H](C)NC(=O)[C@H](C)NC(=O)[C@H](CCCNC(=N)N)NC(=O)CNC(=O)CCCCNC(=O)CCCCNC(=O)CCCCNC(=O)[C@H](CCCCN)NC(=O)[C@H](Cc1ccc(O)cc1)NC(=O)[C@H](Cc1c[nH]c2ccccc12)NC(=O)[C@@H](N)Cc1cn(C)c2ccccc12)C(N)=O` (H-[Trp(1-Me)]WYK[Ava][Ava][Ava]GRAAGLL-NH2), the EC50 [1] is reported as > 10000 nM and the IC50 [2] is reported as 545 nM.
In the case of `CC(C)C[C@H](NC(=O)[C@H](CC(C)C)NC(=O)CNC(=O)[C@H](C)NC(=O)[C@H](C)NC(=O)[C@@H](CCCNC(=N)N)NC(=O)CCCCNC(=O)CCCCNC(=O)CCCCNC(=O)[C@H](CCCCN)NC(=O)[C@H](Cc1ccc(O)cc1)NC(=O)[C@@H](N)Cc1c[nH]c2ccccc12)C(N)=O`, the EC50 [1] is reported as > 10000 nM.
An EC50 [1] of 479 nM was found for `CC(C)C[C@H](NC(=O)CNC(=O)[C@H](C)NC(=O)[C@H](C)NC(=O)[C@H](CCCNC(=N)N)NC(=O)CNC(=O)CCCCNC(=O)CCCCNC(=O)CCCCNC(=O)[C@H](CCCCN)NC(=O)[C@@H](NC(=O)[C@@H](N)Cc1c[nH]c2ccccc12)[C@@H](C)O)C(=O)N[C@H](C(N)=O)C(C)(C)C` (H-WTK[Ava][Ava][Ava]GRAAGL[Tle]-NH2) in this work.
For `CC(C)C[C@H](NC(=O)CNC(=O)[C@H](C)NC(=O)[C@H](C)NC(=O)[C@H](C)NC(=O)CNC(=O)CCCCNC(=O)CCCCNC(=O)CCCCNC(=O)[C@H](CCCCN)NC(=O)[C@H](Cc1ccc(O)cc1)NC(=O)[C@@H](N)Cc1c[nH]c2ccccc12)C(=O)N[C@@H](CO)C(=O)N[C@@H](CO)C(N)=O` (H-WYK[Ava][Ava][Ava]GAAAGLSS-NH2), the EC50 [1] was > 10000 nM.
With `CC(C)C[C@H](NC(=O)[C@H](CC(C)C)NC(=O)CNC(=O)[C@H](C)NC(=O)[C@H](C)NC(=O)[C@H](CCCNC(=N)N)NC(=O)CNC(=O)CCCCNC(=O)CCCCNC(=O)CCCCNC(=O)[C@H](CCCCN)NC(=O)[C@H](NC(=O)[C@@H](N)Cc1c[nH]c2ccccc12)[C@@H](C)O)C(N)=O` the Activity [3] was 81% and the EC50 [1] was > 10000 nM.
An EC50 [1] of 530 nM and an Emax [4] of 38% were found for `CC(C)C[C@H](NC(=O)[C@@H](CC(C)C)NC(=O)CNC(=O)[C@H](C)NC(=O)[C@H](C)NC(=O)[C@H](CCCNC(=N)N)NC(=O)CCCCNC(=O)CCCCNC(=O)CCCCNC(=O)[C@H](CCCCN)NC(=O)[C@H](Cc1ccc(O)cc1)NC(=O)[C@@H](N)Cc1c[nH]c2ccccc12)C(N)=O` in this work.
An EC50 [1] of 8 nM, a remaining at 0.25 h, 1 µM [5] of 86% and a half-life at 1 µM [6] of 39.1 min were found for `CC(C)C[C@H](NC(=O)[C@H](CC(C)C)NC(=O)CNC(=O)[C@H](C)NC(=O)[C@H](C)NC(=O)[C@H](CCCNC(=N)N)NC(=O)CNC(=O)CCCCNC(=O)CCCCNC(=O)CCCCNC(=O)[C@H](CCCCN)NC(=O)[C@H](Cc1ccc(O)cc1)NC(=O)[C@H](Cc1c[nH]c2ccccc12)NC(=O)CCc1c[nH]c2ccccc12)C(N)=O` ({Propanoyl(3-indol-3-yl)}-WYK[Ava][Ava][Ava]GRAAGLL-NH2) in this work. It also gave an EC50 [7] of 2.7 nM.
A remaining at 0.25 h, 1 µM [5] of 48% was found for `CC(C)C[C@H](NC(=O)CNC(=O)[C@H](CO)NC(=O)[C@H](CC(C)C)NC(=O)[C@H](CC(C)C)NC(=O)CNC(=O)[C@H](C)NC(=O)[C@H](C)NC(=O)[C@H](CCCNC(=N)N)NC(=O)CNC(=O)[C@@H](NC(=O)[C@H](CO)NC(=O)[C@H](Cc1ccc(O)cc1)NC(=O)[C@H](CO)NC(=O)[C@H](CO)NC(=O)[C@H](Cc1cnc[nH]1)NC(=O)CNC(=O)[C@H](C)NC(=O)[C@H](C)NC(=O)[C@@H]1CCCN1C(=O)[C@H](CCCCN)NC(=O)[C@H](Cc1ccc(O)cc1)NC(=O)[C@@H](N)Cc1c[nH]c2ccccc12)C(C)C)C(N)=O` in this work.
An EC50 [1] of 478 nM was found for `CC(C)C[C@H](NC(=O)CNC(=O)[C@H](C)NC(=O)[C@H](C)NC(=O)[C@H](CCCNC(=N)N)NC(=O)CNC(=O)CCCCNC(=O)CCCCNC(=O)CCCCNC(=O)[C@H](C)NC(=O)[C@H](Cc1ccc(O)cc1)NC(=O)[C@@H](N)Cc1c[nH]c2ccccc12)C(=O)N[C@@H](CO)C(=O)N[C@@H](CO)C(N)=O` (H-WYA[Ava][Ava][Ava]GRAAGLSS-NH2) in this work.
An EC50 [1] of 578 nM and an Emax [4] of 33% were found for `CC(C)C[C@H](NC(=O)[C@H](CC(C)C)NC(=O)CNC(=O)[C@H](C)NC(=O)[C@@H](C)NC(=O)[C@H](CCCNC(=N)N)NC(=O)CCCCNC(=O)CCCCNC(=O)CCCCNC(=O)[C@H](CCCCN)NC(=O)[C@H](Cc1ccc(O)cc1)NC(=O)[C@@H](N)Cc1c[nH]c2ccccc12)C(N)=O` in this work.
An EC50 [1] of 463 nM and an Emax ([4]; filed as agonist) of 57% were found for `CC(C)C[C@H](NC(=O)CNC(=O)[C@H](C)NC(=O)[C@H](C)NC(=O)[C@H](CCCNC(=N)N)NC(=O)CCCCNC(=O)CCCCNC(=O)CCCCNC(=O)[C@H](CCCCN)NC(=O)[C@H](Cc1ccc(O)cc1)NC(=O)[C@@H](N)Cc1c[nH]c2ccccc12)C(=O)N[C@H](CC(C)C)C(N)=O` in this work.
An EC80 [8] of 20 nM and an Emax ([4]; filed as agonist) of 100% were found for `CSCC[C@H](NC(=O)[C@H](CC(C)C)NC(=O)[C@H](CC(C)C)NC(=O)CNC(=O)[C@H](C)NC(=O)[C@H](C)NC(=O)[C@H](CCCNC(=N)N)NC(=O)CNC(=O)[C@@H](NC(=O)[C@@H](NC(=O)[C@H](Cc1cnc[nH]1)NC(=O)[C@H](Cc1ccc(O)cc1)NC(=O)[C@H](CCCNC(=N)N)NC(=O)[C@@H]1CCCN1C(=O)[C@H](CO)NC(=O)[C@H](C)NC(=O)[C@@H](NC(=O)[C@H](Cc1cnc[nH]1)NC(=O)[C@H](CCCCN)NC(=O)[C@H](Cc1ccc(O)cc1)NC(=O)[C@@H](N)Cc1c[nH]c2ccccc12)C(C)C)[C@@H](C)O)C(C)C)C(=O)NCC(=O)N[C@@H](CC(C)C)C(N)=O` in this work.
An Activity [3] of 95% was found for `CCCCCCCCCCCCCCCC(=O)NCCCC[C@@H](NC(=O)[C@H](CCCCN)NC(=O)[C@H](CCCCN)NC(=O)[C@H](CCCCN)NC(=O)[C@H](Cc1ccc(O)cc1)NC(=O)[C@@H](N)Cc1c[nH]c2ccccc12)C(=O)N[C@@H](CCCCN)C(=O)NCCCCC(=O)NCC(=O)N[C@@H](CCCNC(=N)N)C(=O)N[C@@H](C)C(=O)N[C@@H](C)C(=O)NCC(=O)N[C@@H](CC(C)C)C(=O)N[C@@H](CC(C)C)C(N)=O` in this work.
In the case of `CC(C)C[C@H](NC(=O)CNC(=O)[C@H](C)NC(=O)[C@H](C)NC(=O)[C@H](CCCNC(=N)N)NC(=O)CNC(=O)CCCCNC(=O)CCCCNC(=O)CCCCNC(=O)[C@H](C)NC(=O)[C@@H](N)Cc1c[nH]c2ccccc12)C(=O)N[C@@H](CC(C)C)C(=O)N[C@@H](CO)C(N)=O` (H-WA[Ava][Ava][Ava]GRAAGLLS-NH2), the Activity [3] is reported as 95%, the EC50 [1] is reported as > 10000 nM and the IC50 [2] is reported as 840 nM.
